Laboratory results: patent US20250241892A1, “5-METHOXY-N,N-[…][…] THE TREATMENT OF PSYCHOMOTOR RETARDATION” (GH RESEARCH IRELAND LIMITED, priority 2022, published 2025)

System: patients with postpartum depression (PPD)
Assay: Clinical trial of inhaled 5-MeO-DMT in postpartum depression
Settings: 1 patient
Method: The single-arm, open-label clinical trial will involve 15 adult female patients with clinically diagnosed postpartum depression (PPD).
The second dose (12 mg) will only be administered if: • a. A peak experience (total score of ⋅75) has not been achieved following the 6 mg dose, and • b. The 6 mg dose was safe and well-tolerated according to the investigator, • c. Any psychoactive effects (PsE) of the prior dose have subsided, and • d. Pre-dose vital parameters and forced expiratory volume in one second (FEV1) are in normal range, or if outside of the normal range, are not clinically significant according to the investigator. • 3. Similarly, a third dose (18 mg) will only be administered if: • a. A peak experience (total score of ⋅75) has not been achieved following the 12 mg dose, and • b. The 12 mg dose was safe and well-tolerated according to the investigator, and • c. Any PsE of the prior dose have subsided, and • d. Pre-dose vital parameters and forced expiratory volume in one second (FEV1) are in normal range, or if outside of the normal range, are not clinically significant according to the investigator.
The patients will be assessed for a peak psychedelic experience (based on a patient-scored visual analogue scale, the PE scale), sedation, and other endpoints after dosing. Follow-up visits are planned for Day 1, and Day 7 after the dosing day.
The following criteria must be met by all patients considered for clinical trial participation: • 1. Is female and in the age range between 18 and 45 years (inclusive) at screening. • 2. Has a body mass index (BMI) in the range of 18.5 and 35 kg/m^2 (inclusive) at screening. • 3. Meets the trial criteria for PPD as assessed by a trial psychiatrist or registered psychologist: • a. Diagnosis of Major Depressive Disorder without psychotic features, confirmed by the Mini-International Neuropsychiatric Interview (MINI), with peri-partum onset that began no earlier than gestation and no later than the first 4 weeks postpartum. • b. Has a Montgomery-Åsberg Depression Rating Scale (MADRS) total score of equal to or greater than 28 at screening and pre-dose on Day 0. • 6. […] Patients must have a negative pregnancy test at screening and on the pre-test day (Day −1). • 5. Is willing to delay start of other antidepressant or anxiety medication until after the end of the trial at Day 7 and agrees to keep any psychotherapy unchanged during the trial.
A potential patient who meets any of the following key exclusion criteria will be excluded from participation in this trial: • 1. Has, based on history, psychiatric assessment, and evaluation of the MINI, a current or prior diagnosis of bipolar disorder, a manic or hypomanic episode, a psychotic disorder, Major Depressive Disorder (MDD) or other mood disorder with psychotic features, obsessive compulsive disorder, post-traumatic stress disorder (PTSD), autism spectrum disorder, borderline personality disorder, schizophrenia, delusional disorder, paranoid personality disorder, schizoaffective disorder, clinically significant intellectual disability, or any other psychiatric comorbidity that renders the patient unsuitable for the trial according to the investigator's judgment. • 2. Has one or more first or second degree relatives with a current or previously diagnosed bipolar disorder, psychotic disorder or other mood disorder (including MDD) with psychotic features. • 3. Is in the judgement of a trial psychiatrist or registered psychologist, at significant risk for suicide based on history, psychiatric assessment, and evaluation of suicidal ideation and suicidal behaviour based on the Columbia-Suicide Severity Rating Scale (C-SSRS). • 4. Has taken anti-depressive medication within 14 days or 5 half-lives (whichever is longer) prior to dosing (exception: within the last 5 weeks in the case of fluoxetine). • 5.

`COc1ccc2[nH]cc(CCN(C)C)c2c1` [5-MeO-DMT] was tested, and the “ECG (3 hours), safety laboratory analyses (7 days), CADSS (3 hours, 1 day, 7 days)” value was “unremarkable”, the “Reported adverse events (cramping left abdominal pain and headache, Day 0)” value was “mild, short-lasting and resolved spontaneously” and the “Standard criteria for MADRS remission (MADRS total score equal or less than 10)” value was “fulfilled”. For the same molecule, the “Standard criteria for MADRS response (at least 50% improvement from baseline)” value was “fulfilled”, the “Tolerability of the inhalation procedure” value was “well tolerated with no inhalation-related adverse events” and the “MADRS Apparent sadness improvement” value (2 hr vs baseline) was 5. The “MADRS Concentration Difficulties improvement” value (2 hr vs baseline) was 0, the “MADRS Inability to Feel improvement” value (2 hr vs baseline) was 3 and the “MADRS Inner Tension improvement” value (2 hr vs baseline) was 5. The “MADRS Lassitude improvement” value (2 hr vs baseline) was 3, the “MADRS Pessimistic Thoughts improvement” value (2 hr vs baseline) was 4 and the “MADRS Reduced Sleep improvement” value (2 hr vs baseline) was 0. The “MADRS Reduced appetite improvement” value (2 hr vs baseline) was 0, the “MADRS Reported sadness improvement” value (2 hr vs baseline) was 4 and the “MADRS Suicidal Thoughts improvement” value (2 hr vs baseline) was 0. For the same molecule, the “MADRS Concentration Difficulties score” value (2 hr, baseline 0) was 0, the “MADRS Reduced appetite score” value (2 hr, baseline 0) was 0 and the “MADRS Suicidal Thoughts score” value (2 hr, baseline 0) was 0. For the same molecule, the “MADRS Inability to Feel score” value (2 hr, baseline 3) was 0, the “MADRS Lassitude score” value (2 hr, baseline 3) was 0 and the “MADRS Pessimistic Thoughts score” value (2 hr, baseline 4) was 0. The “MADRS Reported sadness score” value (2 hr, baseline 4) was 0, the “MADRS Apparent sadness score” value (2 hr, baseline 5) was 0 and the “MADRS Inner Tension score” value (2 hr, baseline 5) was 0. For the same molecule, the “MADRS Reduced Sleep score” value (2 hr, baseline 5) was 5, the “MADRS Concentration Difficulties score” value (Day 1, baseline 0) was 0 and the “MADRS Reduced appetite score” value (Day 1, baseline 0) was 0. For the same molecule, the “MADRS Suicidal Thoughts score” value (Day 1, baseline 0) was 0, the “BPRS Blunted affect score” value (Day 1, baseline 1) was 1 and the “BPRS Conceptual disorganization score” value (Day 1, baseline 1) was 1. For the same molecule, the “BPRS Disorientation score” value (Day 1, baseline 1) was 1, the “BPRS Grandiosity score” value (Day 1, baseline 1) was 1 and the “BPRS Hallucinatory behaviour score” value (Day 1, baseline 1) was 1. The “BPRS Hostility score” value (Day 1, baseline 1) was 1, the “BPRS Mannerisms and Posturing score” value (Day 1, baseline 1) was 1 and the “BPRS Motor retardation score” value (Day 1, baseline 1) was 1. The “BPRS Suspiciousness score” value (Day 1, baseline 1) was 1, the “BPRS Uncooperativeness score” value (Day 1, baseline 1) was 1 and the “BPRS Unusual Thought Content score” value (Day 1, baseline 1) was 1. The “BPRS Excitement score” value (Day 1, baseline 2) was 1, the “MADRS Inability to Feel score” value (Day 1, baseline 3) was 0 and the “MADRS Lassitude score” value (Day 1, baseline 3) was 0. For the same molecule, the “MADRS Pessimistic Thoughts score” value (Day 1, baseline 4) was 0, the “MADRS Reported sadness score” value (Day 1, baseline 4) was 0 and the “BPRS Emotional withdrawal score” value (Day 1, baseline 5) was 1. The “MADRS Apparent sadness score” value (Day 1, baseline 5) was 0, the “MADRS Inner Tension score” value (Day 1, baseline 5) was 0 and the “MADRS Reduced Sleep score” value (Day 1, baseline 5) was 0. The “BPRS Depressive Mood score” value (Day 1, baseline 6) was 1, the “BPRS Guilt feelings score” value (Day 1, baseline 6) was 1 and the “BPRS Somatic Concern score” value (Day 1, baseline 6) was 1. The “BPRS Tension score” value (Day 1, baseline 6) was 1, the “BPRS Anxiety score” value (Day 1, baseline 7) was 1 and the “BPRS Anxiety improvement” value (Day 1 vs baseline) was 6. For the same molecule, the “BPRS Blunted affect improvement” value (Day 1 vs baseline) was 0, the “BPRS Conceptual disorganization improvement” value (Day 1 vs baseline) was 0 and the “BPRS Depressive Mood improvement” value (Day 1 vs baseline) was 5. For the same molecule, the “BPRS Disorientation improvement” value (Day 1 vs baseline) was 0, the “BPRS Emotional withdrawal improvement” value (Day 1 vs baseline) was 4 and the “BPRS Excitement improvement” value (Day 1 vs baseline) was 1. For the same molecule, the “BPRS Grandiosity improvement” value (Day 1 vs baseline) was 0, the “BPRS Guilt feelings improvement” value (Day 1 vs baseline) was 5 and the “BPRS Hallucinatory behaviour improvement” value (Day 1 vs baseline) was 0. For the same molecule, the “BPRS Hostility improvement” value (Day 1 vs baseline) was 0, the “BPRS Mannerisms and Posturing improvement” value (Day 1 vs baseline) was 0 and the “BPRS Motor retardation improvement” value (Day 1 vs baseline) was 0. The “BPRS Somatic Concern improvement” value (Day 1 vs baseline) was 5, the “BPRS Suspiciousness improvement” value (Day 1 vs baseline) was 0 and the “BPRS Tension improvement” value (Day 1 vs baseline) was 5. The “BPRS Uncooperativeness improvement” value (Day 1 vs baseline) was 0, the “BPRS Unusual Thought Content improvement” value (Day 1 vs baseline) was 0 and the “MADRS Apparent sadness improvement” value (Day 1 vs baseline) was 5. The “MADRS Concentration Difficulties improvement” value (Day 1 vs baseline) was 0, the “MADRS Inability to Feel improvement” value (Day 1 vs baseline) was 3 and the “MADRS Inner Tension improvement” value (Day 1 vs baseline) was 5. The “MADRS Lassitude improvement” value (Day 1 vs baseline) was 3, the “MADRS Pessimistic Thoughts improvement” value (Day 1 vs baseline) was 4 and the “MADRS Reduced Sleep improvement” value (Day 1 vs baseline) was 5. The “MADRS Reduced appetite improvement” value (Day 1 vs baseline) was 0, the “MADRS Reported sadness improvement” value (Day 1 vs baseline) was 4 and the “MADRS Suicidal Thoughts improvement” value (Day 1 vs baseline) was 0. The “BIMF item 2 (I feel rested) score” value (Day 7, Day 0 score 0) was 2, the “BIMF item 19 (getting better at taking care of my baby) score” value (Day 7, Day 0 score 0) was 1 and the “BIMF item 18 (Anxiety or worry often interferes with my mothering ability) score” value (Day 7, Day 0 score 2) was 5. The “BIMF item 16 (I worry about how other people judge me) score” value (Day 7, Day 0 score 3) was 5, the “BIMF item 13 (taking good care of my physical needs) score” value (Day 7, Day 0 score 4) was 5 and the “BIMF item 4 (My baby and I understand each other) score” value (Day 7, Day 0 score 5) was 5. For the same molecule, the “BIMF item 5 (able to relax and enjoy time with my baby) score” value (Day 7, Day 0 score 5) was 6, the “BIMF item 9 (getting enough encouragement from other people) score” value (Day 7, Day 0 score 5) was 6 and the “BIMF item 10 (I trust my own feelings (instincts)) score” value (Day 7, Day 0 score 5) was 6. For the same molecule, the “BIMF item 11 (a little time each week to do something for myself) score” value (Day 7, Day 0 score 5) was 6, the “BIMF item 15 (My baby and I are getting into a routine) score” value (Day 7, Day 0 score 5) was 6 and the “BIMF item 17 (able to take care of my baby and my other responsibilities) score” value (Day 7, Day 0 score 5) was 5. The “BIMF item 1 (I am a good mother) score” value (Day 7, Day 0 score 6) was 6, the “BIMF item 3 (comfortable with the way I've chosen to feed my baby) score” value (Day 7, Day 0 score 6) was 6 and the “BIMF item 6 (people in my life that I can trust to care for my baby) score” value (Day 7, Day 0 score 6) was 6. For the same molecule, the “BIMF item 8 (getting enough adult interaction) score” value (Day 7, Day 0 score 6) was 6, the “BIMF item 12 (taking good care of my baby's physical needs) score” value (Day 7, Day 0 score 6) was 6 and the “BIMF item 14 (good decisions about my baby's health and well being) score” value (Day 7, Day 0 score 6) was 6. For the same molecule, the “BIMF item 20 (satisfied with the job I am doing as a new mother) score” value (Day 7, Day 0 score 6) was 5, the “MADRS Concentration Difficulties score” value (Day 7, baseline 0) was 0 and the “MADRS Reduced appetite score” value (Day 7, baseline 0) was 0. For the same molecule, the “MADRS Suicidal Thoughts score” value (Day 7, baseline 0) was 0, the “BPRS Blunted affect score” value (Day 7, baseline 1) was 1 and the “BPRS Conceptual disorganization score” value (Day 7, baseline 1) was 1. For the same molecule, the “BPRS Disorientation score” value (Day 7, baseline 1) was 1, the “BPRS Grandiosity score” value (Day 7, baseline 1) was 1 and the “BPRS Hallucinatory behaviour score” value (Day 7, baseline 1) was 1. The “BPRS Hostility score” value (Day 7, baseline 1) was 1.
